pIC50: −log10 of the molar value. “Also recorded” adds a separate entry of the source.

Assay [1] concerns DTH response to OX. Briefly: Inhibition of DTH response to OX in mice (ear swelling). Format: in vivo, BALB/c mice. Set-up: % inhibition of DTH response: concentration or dose not given beside the values. The note with it: I.V.; for Δ Ear swelling: ± SD, positive control 21 ± 2. How it is done: To examine the regulatory role of SF-6,5 on T cell immunity and lymphocyte migration in vivo, a delayed-type hypersensitivity (DTH) reaction experiment was performed in which groups of BALB/c mice (6 mice per group) were sensitized on the shaved abdomen with the skin allergen 4-ethoxymethylene-2-phenyl oxazolone (OX) (10 μl of 3% OX in acetone/olive oil) and challenged again 5 days later by applying OX to their ears. The increment in ear swelling was recorded 24 hours later as a measure of DTH. The individual measuring of ear swelling was blinded to the identity of the groups of mice. GRGDS, RGD surrogate compound SF-6,5 and RGE surrogate compound SF-6,6 were administrated I.V. in 200μl PBS into the tail vein on the indicated days. Control groups of mice were treated identically with PBS.
These findings indicate that modulation of cell-mediated immune reactions in vivo may be achieved by relatively low doses of non-peptidic RGD analogue, most probably by means of interfering with lymphocyte migration.

Assay [2] deals with CD4^+ T cell adhesion to LN. The assay is described as follows: Inhibition of activated CD4+ T cell adhesion to laminin (LN). Format: cell-based, human. The note with it: for % inhibition of adhesion of activated CD4^+ T cell to LN / % Adhesion of activated CD4^+ T cell to LN: 0.2 mM peptides and surrogates, mAb anti-CD29 1/200, anti-VLA5 1/400 diluted; for % inhibition of adhesion of activated CD4^+ T cell to LN: * P<0.05; for % Adhesion of activated CD4^+ T cell to LN: none 55 ± 5. The procedure:
(§1) To examine the adhesive properties of the T cells, 1 μg/50 μl/well of either fibronectin (FN) (Sigma), the 120 kD cell attachment fragment of FN (Telios Pharm. Inc. San Diego, CA), or laminin (LN) (Sigma), were added to 96-flat bottom microtiter-wells for 12 h. Unbound proteins were then washed away and remaining binding sites were blocked with 0.1% bovine serum albumin (BSA) added to the wells for 2 h and washed. CD4+T cells were purified from peripheral blood mononuclear leukocytes obtained from healthy human donors. The mononuclear cells were isolated using a Ficoll gradient, washed and incubated in RPMI supplemented with 10% fetal calf serum (FCS) and antibiotics in petri dishes at 37° C. humidified CO2 incubator. After 2 h, the non-adherent cells were isolated and applied on nylon-wool columns (1.5 h). CD4^+ T cells were then negatively selected by exposure of the cells to a cocktail of anti-CD8, CD19, and CD14 monoclonal antibodies (mAb) conjugated to magnetic-beads (Advanced Magnetics, MA). Unbound cells were recovered and their phenotype was examined. Purity of the CD4^+ T cells was always greater than 92% as determined by FACScan.
(§2) The purified CD4^+ T cells were radioactively labeled with ^51 [Cr](New England Nuclear) in RPMI +20% FCS for 2 h and washed. The cells were counted and seeded (0.2×10^5 cells) on the precoated microtiter wells in the presence or the absence of the various inhibitors. Coating was made either with FN, the 120 kD cell-attachment fragment of FN or with control adhesive protein laminin (LN). The inhibitors were various surrogates according to the invention, other test molecules or mAb. After 30 min incubation (in […] CO2 -- humidified incubator) the T cells were activated by 10 ng/ml phorbol myristate acetate (PMA) and the percent of T cells attached to the protein substrates was measured. Unbound cells were washed away after 20-30 min, the bound cells were lysed and their radioactivity was measured using radioactive counter. The amount of the radioactivity of the cell lysates represent the matrix-adherent cells and percent binding was calculated in comparison to the total radioactivity added to the wells. Activated T cell adhesion to control wells or to wells coated with BSA was always 2-5%; the level of adhesion of the non-activated T cells was always below 5%. Where indicated, 1/200 diluted mAb anti-CD29 (anti-β1 mAb Serotec, GB), or 1/400 diluted anti-VLA5 (the β1α5 FN-integrin receptor) mAb (Telios Pharm. Inc. San Diego), or 0.2 mM of RGD, GRGDSPK or GRGESP peptides (Sigma) were used. The tested non-peptidic surrogates, 0.2 mM in PBS, were used to pretreat the T cells for 15 min before seeding the cells *, P<0.05. The results shown in Tables 1A, 1B and 1C represent data obtained from several experiments that produced essentially similar results.
(§3) The four RGD surrogates, AC-4.

Assay [3] has as its system CD4^+ T cell adhesion to 120 kD fragment of FN. The assay is described as follows: Inhibition of activated CD4+ T cell adhesion to 120 kD fragment of FN. Format: cell-based, human. The note with it: for % inhibition of adhesion of activated CD4^+ T cell to 120 kD fragment of FN / % Adhesion of activated CD4^+ T cell to 120 kD fragment of FN: 0.2 mM peptides and surrogates, mAb anti-CD29 1/200, anti-VLA5 1/400 diluted; for % inhibition of adhesion of activated CD4^+ T cell to 120 kD fragment of FN: * P<0.05; for % Adhesion of activated CD4^+ T cell to 120 kD fragment of FN: PMA activated, none 43 ± 4; for T cell adhesion to FN, in words: 0.2 mM, 120 kD fragment of FN. How it is done: as §1, §2, §3

In assay [4] the target is T1, platelet GPIIb-IIIa receptor (Homo sapiens, UniProt P05106+P08514).
T1 construct: Platelet concentrates were prepared from human whole blood; endogenous in cells; host or cells: human platelets in platelet rich plasma
The assay is described as follows: Inhibition of ADP-induced platelet aggregation (platelet rich plasma). Format: cell-based. The following applies: for Inhibition of platelet aggregation at fixed concentration, in words: FIG. 4, fixed sub-saturating 0.5 mM / 10μg/ml, 4 experiments; for Inhibition of platelet aggregation, dose dependence, in words: FIG. 3. The procedure: To investigate the inhibitory role of the RGD analogues on adhesion, the platelet GPIIb-IIIa receptor which mediates platelet aggregation upon activation was used as a model.
Platelet concentrates were prepared from human whole blood in 10% adenine-citrate-dextrose in Fenwall bags (Baxter Travenol, Israel) followed by standard AABB protocol. Platelet rich plasma was prepared by centrifugation (2500 rpm for 5 min). Samples of platelets were counted in a Minos AST Cell Counter (Levoiselle, France). Cell aggregation was induced by […] and monitored at […] in a 4-channel Aggregometer (Bio-Data, Hatboro, Pa.). To evaluate the effect of the various RGD peptides and the peptide analogues, the platelet rich plasma was pre-incubated with the various inhibitors for 10 min at 37° C. with 10μsolutions followed by the induction of aggregation.
To examine the specificity of the inhibitory effect of the RGD-analogues on platelet aggregation, the cells were treated with various peptidic (RGD and GRGDSP) and non-peptidic (SF-6,6, SF-6,5 and AC-15) RGD analogues used at a fixed sub-saturating concentration of 0.5 mM.
An in vitro assay as described in Example 17 was carried out with the compound NS-11 to examine its ability to interfere with platelet aggregation, and compared it to the SF-6,5 surrogate.
Platelet rich plasma (PRP) was prepared from acid/citrate/dextrose anti-coagulated fresh human blood by differential centrifugation. Platelet aggregation was induced by […] and monitored at 695 nm by a 4-channel Aggregometer (Bio-Data, PA). To evaluate the effect of the RGDS peptide and the NS-8, NS-11 and NS-15 analogs, the PRP was preincubated with the inhibitors for 10 minutes at 37° C., prior to the induction of aggregation. […] In fact, 50% inhibition of platelet aggregation was achieved using a 30-fold lower concentration of NS-11 than that of RGDS.

Where [5] appears, read: injected on days 1 to 6, * P<0.01.

On to GRGDSPK [RGD peptide (Sigma)], for which, in assay [1] (injected on days 1 to 6), the “% inhibition of DTH response” value is listed as 20%. Further, the “Δ Ear swelling” value in assay [1] (setting [5]) is given as 17 ± 3 × 10^-2 mm. Besides, in assay [2], the “% inhibition of adhesion of activated CD4^+ T cell to LN” value (“% inhibition of adhesion … to LN” below) is 0% and the “% Adhesion of activated CD4^+ T cell to LN” value (“% Adhesion … to LN” below) is given as 53 ± 4%. Besides, in assay [3], the “% inhibition of adhesion of activated CD4^+ T cell to 120 kD fragment of FN” value (from here on “% inhibition of adhesion … of FN”) came to 54%; the “% Adhesion of activated CD4^+ T cell to 120 kD fragment of FN” value (shortened to “% Adhesion … of FN”) was 20 ± 2%; the “T cell adhesion to FN, in words” value is given as “specifically inhibited”. In addition, the “Inhibition of platelet aggregation at fixed concentration, in words” value (from here on “Inhibition … at fixed concentration, in words”) in assay [4] was “marked inhibitory effect on platelet aggregation”.

Turning to `N=C(N)NCCCCCC(=O)NCCCCC(=O)O` [SF-6,5, 6-aza-7-oxo-12-quanidino-dodecanoic acid], the “Inhibition of DTH response, in words” value in assay [1] is “inhibited the DTH response best when the mice were injected for 6 days; also recorded: better inhibitor of the DTH response than the GRGDS peptide”. In assay [1] (injected on day 1), the “% inhibition of DTH response” value came to 20% and the “Δ Ear swelling” value is listed as 16 ± 3 × 10^-2 mm. In assay [1] (injected on days 1, 3), the “% inhibition of DTH response” value is on record as 34% and the “Δ Ear swelling” value is recorded as 13 ± 2 × 10^-2 mm. In addition, in assay [1] (injected on days 1, 3, 5), the “% inhibition of DTH response” value is listed as 62%. Further, the “Δ Ear swelling” value in assay [1] (injected on days 1, 3, 5, * P<0.01) is on record as 8 ± 2 × 10^-2 mm. For the same compound, the “% inhibition of DTH response” value in assay [1] (injected on days 1 to 6) was found to be 95%. The “Δ Ear swelling” value in assay [1] (setting [5]) is on record as 2 ± 1 × 10^-2 mm. For the same compound, in assay [2], the “% inhibition of adhesion … to LN” value is 0% and the “% Adhesion … to LN” value turned out to be 55 ± 6%. In assay [3], the “% inhibition of adhesion … of FN” value turned out to be 49%; the “% Adhesion … of FN” value came to 22 ± 2%; the “T cell adhesion to FN, in words” value is reported as “most prominent inhibition”. Moreover, the inhibition at 100 µM in assay [4] (0.1 mM, ADP-induced, read-out: Percent inhibition of aggregation) is 25%. Further, in assay [4] (0.3 mM, ADP-induced, read-out: Percent inhibition of aggregation), the inhibition at 300 µM is 55%. Also, in assay [4], the “Inhibition of platelet aggregation, dose dependence, in words” value was “found to inhibit the aggregation of platelet rich plasma in a dose-dependent fashion” and the “Inhibition … at fixed concentration, in words” value is listed as “even higher than that of the GRGDSPK peptide”. The same compound gave a pIC50 in assay [4] (FIG. 3, ADP-induced) of 3.52. Further, the “Inhibition of platelet aggregation, in words” value in assay [4] (Table 3) was “mild, though significant effect on aggregation”.

For `N=C(N)NCCCCCC(=O)NCCCCCC(=O)O` [SF-6,6], the “% inhibition of DTH response” value in assay [1] (injected on days 1 to 6) is reported as “None”. Further, the “Δ Ear swelling” value in assay [1] (setting [5]) was 23 ± 4 × 10^-2 mm. Besides, the “T cell adhesion to LN, in words” value in assay [2] (0.2 mM) was “did not inhibit T cell adhesion to both FN and LN”. Moreover, in assay [2], the “% inhibition of adhesion … to LN” value worked out at 0% and the “% Adhesion … to LN” value amounted to 52 ± 6%. Moreover, in assay [3], the “% inhibition of adhesion … of FN” value amounted to 0%; the “% Adhesion … of FN” value amounted to 46 ± 2%; the “T cell adhesion to FN, in words” value is “did not inhibit T cell adhesion to both FN and LN”. For the same compound, in assay [4], the “Inhibition of platelet aggregation, dose dependence, in words” value was “but not SF-6,6, was found to inhibit the aggregation of platelet rich plasma” and the “Inhibition … at fixed concentration, in words” value is on record as “very limited inhibitory effect on platelet aggregation”.

(Values after patent US5352667A, “Non-peptidic surrogates of the Arg-Gly-Asp sequence and pharmaceutical compositions comprising them” (priority 1991, dated 1994).)
